Experimental data taken from US20060030537A1, “Ceramide kinase and uses thereof” (priority 2004, published 2006).

What was measured:
A549 cells [1] = experiment: Quantification of arachidonic acid (AA) release in A549 cells; type: cell-based; settings: for AA release (lipid specificity): 1 μM lipid, 2 hours
Protocol: (§1) Cell Culture: A549 lung adenocarcinoma cells (epithelial-derived) were grown in low glucose DMEM (Invitrogen) supplemented with L-glutamine, 10% (v/v) fetal bovine serum (Invitrogen), 200 U/ml of penicillin G sodium, and 200 μg/ml of streptomycin sulfate. Cells were maintained under 80% confluency and standard incubator conditions (humidified atmosphere, 95% air, 5% CO2, 370 C). For treatment, cells were incubated for 2 hours in low glucose DMEM (Invitrogen) supplemented with L-glutamine, 2% (v/v) fetal bovine serum (Invitrogen), 200 U/ml of penicillin G sodium, and 200 μg/ml of streptomycin sulfate prior to the addition of agonist.
Quantification of arachidonic acid (AA) release: A549 cells (5×10^4) were labeled overnight with 5 μCi/mL [^3H]-AA (5 nM) (NEN). Cells were washed and incubated in DMEM supplemented with 2% fetal bovine serum for 2 hours. Following treatment, media was transferred to 1.5 mL polypropylene tubes, centrifuged at 10,000×g, and ^3H-AA cpm determined by scintillation counting. Results were controlled for equivalent number of cells quantified by MTT assay as described (Chalfant, C. E., Rathman, K., Pinkerman, R. L., Wood, R. E., Obeid, L. M., Ogretmen, B., and Hannun, Y. A. (2002) J. Biol. Chem. 277, 12587-12595) and by verification of total AA labeling by scintillation counting. For the experiments in FIG. 4, purified SMase D was obtained from Dr. Alfred H. Merrill, Jr., and SMase C (purified from Bacillus cereus) was obtained commercially from Sigma.
RNAi design and transfections: Knock-downs of ceramide kinase were performed essentially as described using sequence specific siRNA reagents (http:www.mpibpc.gwdg.de/abteilungen/100/105/sirna.html) (Lassus, P., Opitz-Araya, X., and Lazebnik, Y. (2002) Science 297, 1352-1354) using human ceramide kinase RNAi starting 142 nucleotides from start codon ([…]dTd (SEQ ID NO: 3) and […]dTd (SEQ ID NO:4)). All sequences were evaluated against the database using the NIH blast program to test for specificity (Xeragon, A Qiagen Company). A549 cells (3×10^4) were transfected with the 21-nucleotide duplexes using OligofectAMINE (Invitrogen) as recommended by the manufacturer. Following the 4 hour transfection, cells were treated and assayed for AA release or PGE2 synthesis at 26 hours post-transfection.

A549 cells [2] = experiment: Quantification of prostaglandin E2 synthesis in A549 cells (EIA); type: cell-based; settings: 2.5 μM, only after 1 hour
Protocol: as §1
Quantification of prostaglandin E2 and thromboxane B2 synthesis: For measurement of PGE2 and TXB2 levels, aliquots of media were taken at indicated time points and assayed according to manufacturer's instructions using the prostaglandin E2 and thromboxane B2 monoclonal EIA Kit from Cayman Chemical. Briefly, media containing PGE2 or TXB2 competes with PGE2 or TXB2 acetylcholinesterase conjugate for a limited amount of monoclonal antibody. The antibody-PGE2 or -TXB2 conjugate binds to a goat-anti-mouse antibody previously attached to the 96-well plate. The plate is washed to remove unbound reagents and then the substrate for acetylcholinesterase is provided. […] Results were controlled for equivalent number of cells quantified by MTT assay. […]

A549 cells [3] = experiment: Quantification of thromboxane B2 synthesis in A549 cells (EIA); type: cell-based; settings: 1 μM
Protocol: (§2) FIGS. 3A-3B. FIG. 3A. The effects of ceramide-1-phosphate on TXB2 synthesis. A549 cells (1×10^5) were treated with D-e-C16 ceramide-1-phosphate (1 μM) solubilized in 2% dodecane/98% ethanol (final concentration in treatments was 0.002% dodecane/0.098% ethanol (EtOH)) for the indicated times. The results are presented as % control of TXB2 controlled for equivalent number of cells by MTT assay. Data are representative of 3 separate determinations on 2 separate occasions. FIG. 3B. The effects of ceramide-1-phosphate on AA release and PGE2 synthesis in L929 fibroblasts. L929 cells (5×10^4) were labeled overnight with 5 μCi/mL [^3H]-arachidonic acid (5 nM). Cells were washed and placed in DMEM supplemented with 2% fetal bovine serum for two hours. Cells were then treated with 2.5 μM D-e-C16 ceramide-1-phosphate (solubilized in 98% ethanol/2% dodecane) for the indicated times. […]
(§3) Quantification of prostaglandin E2 and thromboxane B2 synthesis: For measurement of PGE2 and TXB2 levels, aliquots of media were taken at indicated time points and assayed according to manufacturer's instructions using the prostaglandin E2 and thromboxane B2 monoclonal EIA Kit from Cayman Chemical. […] Results were controlled for equivalent number of cells quantified by MTT assay.

L929 fibroblasts [4] = experiment: AA release in L929 fibroblasts; type: cell-based; settings: 1 μM, after 1 hour
Protocol: as §2, with “hours.” for “hours. Cells were then treated with 2.5 μM D-e-C16 ceramide-1-phosphate (solubilized in 98% ethanol/2% dodecane) for the indicated times.”
Quantification of arachidonic acid (AA) release: A549 cells (5×10^4) were labeled overnight with 5 μCi/mL [^3H]-AA (5 nM) (NEN). […] Following treatment, media was transferred to 1.5 mL polypropylene tubes, centrifuged at 10,000×g, and ^3H-AA cpm determined by scintillation counting. Results were controlled for equivalent number of cells quantified by MTT assay as described (Chalfant, C. E., Rathman, K., Pinkerman, R. L., Wood, R. E., Obeid, L. M., Ogretmen, B., and Hannun, Y. A. (2002) J. Biol. Chem. 277, 12587-12595) and by verification of total AA labeling by scintillation counting. […]

L929 fibroblasts [5] = experiment: PGE2 synthesis in L929 fibroblasts; type: cell-based; settings: L929 fibroblasts that do not express COX-2
Protocol: as §2, §3

COX-2 = COX-2 expression by western immunoblotting; type: cell-based
protein phosphatase-1 = experiment: Inhibition of protein phosphatase-1; type: biochemical
protein phosphatase 2A = experiment: Inhibition of protein phosphatase 2A; type: biochemical
C-1-P levels = experiment: Ceramide-1-phosphate levels by pulse-labeling with D-e-C6 NBD-ceramide in A549 cells; type: cell-based
Protocol: (§4) FIGS. 5A-5C. IL-1β and calcium ionophore increase ceramide-1-phosphate production and ceramide kinase activity. FIGS. 5A and 5B. The effect of IL-1 and A23187 on C-1-P levels and AA liberation. A549 cells (2×10^5) were labeled overnight with 10 μCi/mL [^3H]-arachidonic acid (10 nM), washed, and then treated with either 2.5 ng/mL of IL-1β (FIG. 5A) or 1 μg/mL of A23187 (FIG. 5B) for the indicated times. Two hours prior to Bligh-Dyer extraction, cells were chased with 20 μM of D-e-C6 NBD-ceramide (Matreya). At the appropriate times, media was taken for AA analysis, and lipids from the cells were extracted by the Bligh-Dyer method followed by analysis of NBD-C-1-P formation. Data are presented as % control of C-1-P levels (J) and AA release (B). Data are representative of three separate determinations on 2 separate occasions. FIG. 5C. IL-1β and calcium ionophore increase ceramide kinase activity. A549 cells (5×10^5) were treated with either 2.5 ng/mL of IL-1β for 3.5 hours or 1 μg/mL of A23187 for 5 minutes. Cells were then washed, lysed in assay buffer, and assayed for ceramide kinase activity. Data is presented as % control of ceramide kinase activity (Arbitrary densitometry units of fluorescent NBD-C-1-P produced/min/mg of total cellular protein). Data are representative of three separate determinations on 2 separate occasions.
Quantification of ceramide-1-phosphate levels by pulse-labeling with D-e-C6 NBD-ceramide: Two hours prior to Bligh-Dyer extraction, cells were chased with 20 μM of D-e-C6 NBD-ceramide (Matreya). At the appropriate times, lipids were extracted by the Bligh-Dyer method, analyzed for NBD-C-1-P formation using TLC analysis, and results normalized to total lipid phosphate as described (Perry, D. K., Bielawska, A., and Hannun, Y. A. (2000) Methods Enzymol. 312, 22-31).

ceramide kinase = experiment: Ceramide kinase assay on lysates of treated or transfected A549 cells; type: cell-based, human
Protocol: as §4
FIGS. 6A-6B. Ceramide kinase RNAi downregulates endogenous ceramide kinase activity and mRNA levels. FIG. 6A. The effect of ceramide kinase RNAi on endogenous ceramide kinase activity. […] Following the same procedure as outlined in FIG. 6A, total RNA was extracted and analyzed via logarithmic reverse-transcriptase polymerase chain reaction for human ceramide kinase and 18s ribosomal RNA. […]
Ceramide Kinase Assay: Ceramide kinase activity was measured as described previously with slight modifications (Bajjalieh, S., and Batchelor, R. (2001) Methods Enzymol. 311, 207-215). […] Following Bligh-Dyer extraction, lipids were separated by thin layer chromatography, and NBD-C-1-P was visualized/quantified by fluorescent phosphorimaging.

CCCCCCCCCCCCC/C=C/[C@@H](O)[C@H](CO)NC(=O)CCCCCCCCCCCCCCC [CER, D-erythro C16 ceramide]
AA release (lipid specificity) (A549 cells [1]): small increase | AA release, long term treatment (A549 cells [1]; 8 hours): no further increase

CCCCCCCCCCCCC/C=C/[C@@H](O)[C@H](COP(=O)(O)O)NC(=O)CCCCCCCCCCCCCCC [C-1-P, D-erythro-C16 ceramide-1-phosphate]
concentration as low as which induces a significant increase in AA release (A549 cells [1]): 100 nM | AA release (lipid specificity) (A549 cells [1]): induced significant AA release | maximal early increase in AA release (A549 cells [1]; 2.5 μM, after 20 minutes): approximately 2 fold | AA release (A549 cells [1]; 2.5 μM, after 1 hour, following reuptake): sustained increase | EC50 (A549 cells [1]; 8 hours, read-out: EC50 of effect on AA release): 400 nM | PGE2 synthesis (A549 cells [2]): Increased | increase of TXB2 (A549 cells [3]; after 2 hours): 2.5 fold | increase of TXB2 (A549 cells [3]; after 4 hours): 11 fold | AA release over basal release (L929 fibroblasts [4]): 225% | PGE2 synthesis/release (L929 fibroblasts [5]): not observed | expression of COX-2 (COX-2): no effect | IC50 (protein phosphatase-1): 50 nM | IC50 (protein phosphatase 2A): 50 nM

CCCCCCCC/C=C\CCCCCCCC(=O)OC[C@H](COP(=O)(O)O)OC(=O)CCCCCCC/C=C\CCCCCCCC [PA, di-oleoyl phosphatidic acid]
AA release (lipid specificity) (A549 cells [1]): Only C-1-P induced significant AA release

CCCCCCCCCCCCC/C=C/[C@@H](O)[C@@H](N)COP(=O)(O)O [S-1-P, D-erytho-sphingosine-1-phosphate]
AA release (lipid specificity) (A549 cells [1]): Only C-1-P induced significant AA release

IL-1β
increase in C-1-P levels (C-1-P levels; 2.5 ng/mL, after 4 hours): 242% | increase of ceramide kinase activity (ceramide kinase; 2.5 ng/mL, 3.5 hours): 187%

di-oleoylglycerol [DAG]
AA release (lipid specificity) (A549 cells [1]): Only C-1-P induced significant AA release

CNc1ccc2oc(C[C@H]3O[C@@]4(CC[C@H]3C)O[C@H]([C@H](C)C(=O)c3ccc[nH]3)[C@H](C)C[C@H]4C)nc2c1C(=O)O [A23187]
time to increased AA release (A549 cells [1]; 1 μg/mL): within minutes | maximal increase in C-1-P levels (C-1-P levels; 1 μg/mL, after 10 minutes): approximately 4 fold | C-1-P levels (C-1-P levels; 1 μg/mL, within 5 minutes of treatment): significant increase | increase of ceramide kinase activity (ceramide kinase; 1 μg/mL, 5 minutes): 216%
